Data from patent US4681877A, “Pivaloyloxymethyl 7-β-[2-(2-amino-4-thiazolyl)-2-methoxyiminoacetamido]-3-(2-amino-1, 3-thiadiazolyl-5-thiomethyl)-3-cepheme-4-carboxylate and pharmaceutical composition containing the same” (Kureha Kagaku Kogyo Kabushiki Kaisha, priority 1982, dated 1987).
Where two headings read alike, the source gives them in different places.

What was measured:
[1] = Stability to rat liver homogenate (S-9 mix): rate of maintaining the antibacterial activity; assay type: in vitro ADME; conditions: for remaining at 20 min: rat
Procedure: For verifying the stability of the compound represented by the formula (I), 7-beta-[2-(2-amino-4-thiazolyl)-2-methoxyiminoacetamindo]-3-(-2-amino-1,3,4-thiadiazoyl-5-thiomethyl)-3-cepheme -4-carboxyulic acid in living body of the host, the following model experiment was carried out.
(§1) As a metabolism-activating enzyme, a rat liver homogenate (S-9, manufactured by Oriental Yeast Co.) was used in the following composition(referred to as S-9 mix, hereinafter):
(§2) After mixing 0.1 ml of a solution of the compound to be tested with 0.9 ml of S-9 mix or 0.9 ml of 0.1 M phosphoric acid buffer solution, the mixture was subjected to shaking culture for 20 min at 37° C. to prepare a test reaction solution for use in the following experiment.
(§3) Staphylococcus aureus IAM 1011 was inoculated to Mueller-Hinton'culture medium and the inoculum was cultured for 18 hours at 37° C. and after adjusting the number of the bacterial cells to 10^8 /ml of the culture medium, 50 times by weight of the Mueller-Hinton agar culture medium were added to the cultured medium to prepare flat culture plates. After placing a penicillin-cup of 8 mm in diameter on each of the thus prepared flat culture plates, 0.1 ml of the above-mentioned test reaction solution was introduced into the penicillin cup, and after leaving the system for 2 hours at 4° C., the system was incubated for 18 hours at 37° C., and the diameter of the growth-inhibition circle around the cup on the culture plate was determined.
By applying each of the thus determined diameters of the respective growth-inhibition circles on a diagram preliminarily prepared to indicate the relationship between the diameter of the growth-inhibition circle and the concentration of the compound in the culture medium before carrying out the culture, the concentration of the compound in the culture medium in the presence of S-9 mix was obtained(referred to as C2). […]

[2] = Stability in blood of living body: serum concentration after injection; assay type: in vivo, male Wistar rats; conditions: rat, iv, caudal vein, Wistar rats, read-out: Concentration in the serum specimen
Procedure: A solution of sodium salt (the product in Example 2) of the compound represented by the formula(I) in an aqueous physiological solution was injected into each of 5 healthy male Wistar rats (body weight of about 180 g) after 6 to 7 weeks of birth from the caudal vein by one shot method. The same procedure was carried out by using a solution of the sodium salt in a 1/15 M phosphoric acid buffer of pH of 7.0. After 30 min, 2 hours and 4 hours of the injection, the blood of the rate was collected from the cut carotid artery of the rat, and the collected blood was subjected to centrifugation for 15 min at 3000 rpm to obtain the three kinds of serum specimens (collected after 30 min, 2 hours and 4 hours after the injection).
Separately, flat culture plates were made by adding 0.05 % by weight of Escherichia coli IFO 12734 into Heart-infusion agar culture medium, and a penicillin cup of 8 mm in diameter was placed on the flat culture medium, and each of the serum specimen, each of the blood specimen, 1/15 M phosphoric acid buffer solution or a 50% acetone-phosphoric acid buffer solution was introduced into the cup. The thus prepared inoculant was left for 30 min to 1 hour at room temperature and incubated for a night at 37° C.
Then, the diameter of the growth-inhibition circle around the penicillin cup on each flat culture plate was determined, and according to the preliminarily prepared graph showing the relationship between the diameter of the growth-inhibition circle and the concentration of the sodium salt in the serum specimen, the blood specimen, 1/15 M phosphoric acid buffer solution and 50% acetone-phosphoric acid buffer solution, the concentration of the sodium salt in the serum specimen was obtained as: […]

[3] = test system: Staphylococcus aureus IAM 1011; test: Minimum growth-inhibition concentration (MIC), Staphylococcus aureus IAM 1011; assay type: cell-based; conditions: Mueller-Hinton agar, 18 to 24 hours at 37° C.
Procedure: (§4) The minimum inhibiting concentration(MIC) of the compound represented by the formula(I) and the compound represented by the formula(V) was measured according to the standard method of Japan Society of Chemotherapy against each of the following bacterial species:
(§5) Anti-bacterial activity of the compounds respectively produced in Examples 1, 2 and 3 was determined according to the standard method of Japanese Society of Chemotherapy as follows.
(§6) Each of the following bacterial strains was inoculated in Mueller-Hinton's culture medium and cultured for 18 to 48 hours at 37° C. to obtain a standard bacterial liquid containing 10^6 cells/ml.
(§7) Separately, agar plates were prepared by adding each of the solutions of each of the compounds respectively produced in Examples, 1, 2 and 3 at predetermined concentrations in amount of one ninth by weight to Mueller-Hinton's culture medium.

[4] = test system: Proteus vulgaris IAM 1025; test: Minimum growth-inhibition concentration (MIC), Proteus vulgaris IAM 1025; assay type: cell-based; conditions: Mueller-Hinton agar, 18 to 24 hours at 37° C.
Procedure: as §4, §5, §6, §7

E. coli IFO 12734 = test: Minimum growth-inhibition concentration (MIC), E. coli IFO 12734; assay type: cell-based, Escherichia coli; conditions: Mueller-Hinton agar, 18 to 24 hours at 37° C.
Procedure: as §4, §5, §6, §7

[5] = test system: Serratia marcescens IAM 1223; test: Minimum growth-inhibition concentration (MIC), Serratia marcescens IAM 1223; assay type: cell-based; conditions: Mueller-Hinton agar, 18 to 24 hours at 37° C.
Procedure: as §4, §5, §6, §7

[6] = test system: Pseudomonas aeruginosa IAM 1514; test: Minimum growth-inhibition concentration (MIC), Pseudomonas aeruginosa IAM 1514; assay type: cell-based; conditions: Mueller-Hinton agar, 18 to 24 hours at 37° C.
Procedure: as §4, §5, §6, §7

E. coli W 3636 = test: Minimum growth-inhibition concentration (MIC), E. coli W 3636; assay type: cell-based, Escherichia coli; conditions: Mueller-Hinton agar, 18 to 24 hours at 37° C.
Procedure: as §4, §5, §6, §7

[7] = Acute mammalian toxicity (LD50, 7-day mortality); assay type: in vivo; conditions: mouse, in vivo
Procedure: (§8) Acute mammalian toxicity of the compound represented by the formula(I) and the compound represented by the formula(V) was investigated by orally or intraperitoneally administering a series of aqueous physiological saline solution containing each of the above-mentioned compounds to groups of ICR-JCL mice, and observing the toxic symptoms appearing on the mice including the mortality for 7 days. Then, from the cumulative mortality, LD50 values were calculated by Litchfield-Wilcoxon's graphical method.

ICR-JCL mice = test: Acute mammalian toxicity (LD50, 7-day mortality); assay type: in vivo; conditions: autopsy after 7 days, dead and live mice
Procedure: as §8

Escherichia coli [8] = test: Effect on the experimental infectious disease on mice; assay type: in vivo, Escherichia coli; ddY-strain SPF mice; conditions: orally 100 mg/kg, ddY-strain SPF mice, 1.4×10^8 cells E. coli i.p.
Procedure: To each of the two groups of ddY-strain SPF mice, 1.4×10^8 cells of Escherichia coli was intraperitoneously inoculated to be infected, and just after or after 4 hours of the inoculation, the compound represented by the formula (I) was orally administered at a dose rate of 100 mg/kg.

test bacterial species = test: Anti-bacterial activity (MIC) in general, all test species; assay type: cell-based; conditions: against the test bacterial species
Procedure: as §4
Escherichia coli IFO 12734
Staphylococcus aureus IAM 1011
Proteus vulgaris IAM 1025
Pseudomonas aeruginosa IAM 1514 and
Serratia marcescens IAM 1223

Escherichia coli IFO = test: Effects on infectious disease (mice infected with Escherichia coli IFO); assay type: in vivo; conditions: orally 100 mg/kg just after and 4 hours after inoculation; 7 days
Procedure: After inoculating a group consisting of 20 mice with Escherichia coli IFO intraperitoneously to be infected, the compound represented by the formula(V) was orally administered to the mice just after and after 4 hours of inoculation at a dose rate of 100 mg/kg body weight, and after 7 days of the administration, the effectiveness of the compound was judged by observing the death rate of each group of mice by the infection.
In the same manner, after inoculating another group consisting of 20 mice with Escherichia coli IFO intraperitoneously to be infected, the compound represented by the formula(I) was orally administered thereto just after and after 4 hours of inoculation at the dose rate of 100 mg/kg body weight, and after 7 days of the administration, the effectiveness of the compound was judged by observing the rate of survival of the mice.

Lactobacillus sp. = test system: Lactobacillus sp.; parameters: species or system Lactobacillus sp.; female ICR mice; conditions: mouse, in vivo, po, 100 mg/kg
Procedure: (§9) The above-mentioned pivaloyloxymethyl ester represented by the formula(V) was orally administered for two continued days at a daily dosage of 100 mg/kg body weight to each of five female ICR mice of a group after 6 weeks of birth. Each of the two fecal specimens respectively collected before and after one day of the administration was diluted with 100 times by weight of an anaerobic diluent(a phosphoric buffer solution) and was ground in a mortar, and 0.1 ml of the ground material was smeared on each of the following culture media for the following bacteria and the thus inoculated culture media were incubated under the following conditions. Thereafter, the number of the following bacteria was determined on each culture medium.

Pseudomonas aeruginosa = test system: Pseudomonas aeruginosa; parameters: species or system Pseudomonas aeruginosa; female ICR mice; conditions: mouse, in vivo, po, 100 mg/kg
Procedure: as §9

Escherichia coli [9] = test: Activity against Escherichia coli before and after metabolism by rat liver homogenate; assay type: cell-based
Procedure: The same test as above was carried on the compound represented by the formula(V). The results obtained were compared to the results of the test (1) on the compound represented by the formula(I) according to the following criterion.
Taking the diameter of the growth-inhibiting circle due to the compound represented by the formula(I) at the same concentration as 100, and the ratio of the diameter of the growth-inhibiting circle due to the compound represented by the fomula(V) to the diameter of the growth-inhibiting circle due to the compound represented by the formula(I) is represented by the percentages as follows, and the respective signs are attributed to the respective percentage.

Bacterioides sp. = test system: Bacterioides sp.; parameters: species or system Bacterioides sp.; female ICR mice; conditions: mouse, in vivo, po, 100 mg/kg
Procedure: as §9

Escherichia coli [10] = test: Number of bacterial cells in feces, E. coli; assay type: in vivo, Escherichia coli; female ICR mice; conditions: after 2 days oral 100 mg/kg; before: 6.4
Procedure: as §9

Lactobacillus bifidus = test system: Lactobacillus bifidus; parameters: species or system Lactobacillus bifidus; female ICR mice; conditions: mouse, in vivo, po, 100 mg/kg
Procedure: as §9

[11] = test system: Staphylococcus aureus IAM 1011; test: Stability of the compound of formula (V): growth-inhibiting circle with/without S-9 mix; assay type: cell-based; conditions: formula (I) = 100
Procedure: as §1, §2, §3
The same test as above was carried on the compound represented by the formula(V). […]

Streptococcus sp. = test system: Streptococcus sp.; parameters: species or system Streptococcus sp.; female ICR mice; conditions: mouse, in vivo, po, 100 mg/kg
Procedure: as §9

[12] = ip, read-out: LD50 (intraperitoneous)

Compound	Minimum growth-inhibition concentration (MIC) on Staphylococcus aureus IAM 1011 [3]	Minimum growth-inhibition concentration (MIC) on Proteus vulgaris IAM 1025 [4]	Minimum growth-inhibition concentration (MIC) on E. coli IFO 12734 (E. coli IFO 12734)	Minimum growth-inhibition concentration (MIC) on Serratia marcescens IAM 1223 [5]	Minimum growth-inhibition concentration (MIC) on Pseudomonas aeruginosa IAM 1514 [6]	Minimum growth-inhibition concentration (MIC) on E. coli W 3636 (E. coli W 3636)	LD50 at 168 h [7, 12]	LD50 at 168 h ([7]; po, read-out: LD50 (oral))	Autopsy findings (ICR-JCL mice)	Anti-bacterial activity (MIC), in words (test bacterial species)	Rate of survival (Escherichia coli IFO)	further results
CO/N=C(\C(=O)N[C@@H]1C(=O)N2C(C(=O)O)=C(COC(C)=O)CS[C@H]12)c1csc(N)n1 [CEFOTAX ®, reference compound]	1.56	< 0.05	< 0.05	0.2	50	0.1	–	–	–	–	–	remaining at 20 min ([1]; s9): 17%; concentration at 0.5 h ([2]; 30 min after injection): 7000 ng/mL; concentration at 2 h ([2]; 2 hours after injection): 2500 ng/mL; concentration at 4 h ([2]; 4 hours after injection): 400 ng/mL
CON=C(C(=O)N[C@@H]1C(=O)N2C(C(=O)O)=C(CSc3nnc(N)s3)CS[C@H]12)c1csc(N)n1 [Example 1, 7-beta-[2-(2-amino-4-thiazolyl)-2-methoxyiminoacetamido]-3-(2-amino-1,3,4-thiadiazolyl-5-thiomethyl)-3-cepheme-4-carboxylic acid]	0.78	< 0.05	< 0.05	0.2	12.5	0.2	> 10000 mg/kg	> 10000 mg/kg	No noticeable information	strong and broad anti-bacterial activity	over 55%	Stability to the action of rat liver homogenate, in words ([1]; S-9 mix): stable; remaining at 20 min ([1]; liver homogenate s-9 mix, S-9 mix, 20 min at 37° C., read-out: Rate of maintaining the antibacterial activity): 80%; Survival on the 7th day of infection (Escherichia coli [8]): more than 55%
CON=C(C(=O)N[C@@H]1C(=O)N2C(C(=O)OCOC(=O)C(C)(C)C)=C(CSc3nnc(N)s3)CS[C@H]12)c1csc(N)n1 [Example 3, pivaloyloxymethyl 7-beta-[2-(2-amino-4-thiazolyl) -2-methoxyiminoacetamido]-3-(2-amino-1,3,4,-thiadiazolyl-5-thiomethyl)-3-cepheme-4-carboxylate]	≥ 100	12.5	12.5	≥ 100	≥ 100	50	> 10000 mg/kg	> 10000 mg/kg	No noticeable information	not so small to verify the anti-bacterial activity	over 60%	log10 value of the number of bacterial cells/g of feces, Lactobacillus sp. (Lactobacillus sp.): 8.9 log10 of bacterial cells/g of; log10 value of the number of bacterial cells/g of feces, Pse. aeruginosa (Pseudomonas aeruginosa): < 3.0 log10 of bacterial cells/g of; Activity against Escherichia coli, in words (Escherichia coli [9]; after metabolized by the rat liver homogenate): active; Activity to Escherichia coli, in words (Escherichia coli [9]; compound itself, without S-9 mix): inactive; log10 value of the number of bacterial cells/g of feces, Bacterioides sp. (Bacterioides sp.): 8.2 log10 of bacterial cells/g of; log10 value of the number of bacterial cells/g of feces, E. coli (Escherichia coli [10]): 6.5 log10 of bacterial cells/g of; log10 value of the number of bacterial cells/g of feces, Lact. bifidus (Lactobacillus bifidus): 8.4 log10 of bacterial cells/g of; Ratio of diameter of growth-inhibiting circle to that of formula (I), sign ([11]; added with S-9 mix): +++ (67 to 100); Ratio of diameter of growth-inhibiting circle to that of formula (I), sign ([11]; without addition of S-9 mix): ± (0 to 1); log10 value of the number of bacterial cells/g of feces, Streptococcus sp. (Streptococcus sp.): 7.0 log10 of bacterial cells/g of
